This is an account of results in paper PMC10454409, “Hybrids of Sterically Hindered Phenols and Diaryl Ureas: Synthesis, Switch from Antioxidant Activity to ROS Generation and Induction of Apoptosis” (International Journal of Molecular Sciences, 2023).

The nature of one data set: Cyclic voltammetry. Type of data set: physicochemical. The settings on record: in CH3CN vs. Ag/AgCl; GC electrode; 0.1 V/s. From the text: Electrochemical measurements were taken on a BASi Epsilon EClipse electrochemical analyzer (West Lafayette, IN, USA). The program concentrated cEpsilon-ECUSB-V200 waves at the potential scan rate t = […] in a CH3CN 0.1 M solution of Bu4NBF4 at 295 K. A glassy carbon working electrode (ð = 3 mm) embedded in Teflon and a Pt wire as the counter electrode were used in the electrochemical cell. Before each measurement, the surface of the working electrode was mechanically polished. Ag/AgCl (0.01 M KCl) was used as a reference electrode. The reference electrode was connected with the cell solution by a modified Luggin capillary filled with the supporting electrolyte solution (0.1 M Bu4NBF4 in CH3CN). Thus, the reference electrode assembly had two compartments, each terminated with an ultra-fine glass frit to separate the AgCl from the analyte. The scan rate was 100 mV∙s^−1. The measurements were performed in a temperature-controlled electrochemical cell (volume from 5 mL to 20 mL) in an inert gas atmosphere (N2).
Figure 10 Cyclic voltammogram for the oxidation of SHPs. Conditions: 0.1 mM CH3CN (0.1 M Bu4NBF4); potentials vs. Ag/AgCl; work electrode: GC; scan rate: 0.1 V/s.

The test system of data set [1] is MCF-7 cells (human breast adenocarcinoma). Nature of the data set: MTT cytotoxicity test, MCF-7. Type of data set: cell-based. The note with it: Homo sapiens, MCF7, MTT test; 24 h incubation per text, 48 h per method. The protocol: (§1) The cytotoxic effect on cells was determined using the colorimetric method of cell proliferation—the MTT test. NADP-H-dependent cellular oxidoreductase enzymes can, under certain conditions, reflect the number of viable cells. These enzymes are able to reduce the tetrazolium dye (MTT)-3-(4,5-dimethylthiazol-2-yl)-2,5-diphenyl-tetrazolium bromide to insoluble blue-violet formazan, which crystallizes inside the cell. The amount of formazan formed is proportional to the number of cells with active metabolism.
Formazan crystals were added to 100 µL of DMSO in each well. Optical density was recorded at 540 nm on an in vitro logic microplate reader (Russia). The experiments for all compounds were repeated in triplicate.

Data set [2] deals with HuTu 80 cells (human duodenal adenocarcinoma). Nature of the data set: MTT cytotoxicity test, HuTu 80. Type of data set: cell-based. The settings on record: Homo sapiens, HuTu80, read-out: IC50, HuTu 80.
Text: (§2) For the experiments, we used tumor cell cultures M-HeLa clone 11 (epithelioid carcinoma of the cervix, subline HeLa., clone M-HeLa), HuTu 80 (human duodenal adenocarcinoma) and MCF7 (human breast adenocarcinoma (pleural fluid)) from the collection of the Institute of Cytology, Russian Academy of Sciences (St. Petersburg); human liver cells (Chang liver) from the collection of the Research Institute of Virology at the Russian Academy of Medical Sciences (Moscow); and SH-SY5Y (neuroblastoma)from the Laboratory of Tumor Cell Genetics at the Scientific Research Institute of Carcinogenesis N.N. Blokhin National Medical Research Center of Oncology.
as §1
(§3) Cells were seeded on a 96-well Nunc plate at a concentration of 5 × 10^3 cells per well in a volume of 100 μL of medium and cultured in a CO2 incubator at 37 °C until a monolayer was formed. […] After 48 h, the nutrient medium was removed from the plates and 100 µL of the nutrient medium without serum with MTT at a concentration of 0.5 mg/mL was added and incubated for 4 h at 37 °C. Formazan crystals were […] 100 µL of DMSO in each well. Optical density was recorded at 540 nm on an in vitro logic microplate reader (Russia). The experiments for all compounds were repeated in triplicate.
(§4) IC50 values were estimated using the Quest Graph IC50 Calculator (AAT Bioquest, Inc., Sunnyvale, CA, USA) (Version 2022) (accessed on 25 June 2022).
In general terms: Tetrazolium assays rely on reduction of a dye to a coloured formazan, in cell work by metabolically active cells.

Data set [3] has as its system M-HeLa cells (human cervix epithelioid carcinoma). Nature of the data set: MTT cytotoxicity test, M-HeLa. Type of data set: cell-based. The note with it: Homo sapiens, M-HeLa; MTT test; 24 h incubation per text, 48 h per method.
Text: as §2, §1, §3, §4

For data set [4], the system named is SH-SY5Y cells (neuroblastoma). The experiment in a line: MTT cytotoxicity test, SH-SY5Y. Type of data set: cell-based. The note with it: Homo sapiens, SH-SY5Y; MTT test; 24 h incubation per text, 48 h per method.
Text: as §2, §1, §3, §4

In the next data set the test system is HuTu 80 cells. Nature of the data set: Intracellular ROS level, CellROX Deep Red flow cytometry. Type of data set: cell-based, human. The settings on record: 48 h incubation, maximum concentration (IC50).
Data set [5] has as its system Chang liver cells (human liver cells, normal cell line). Nature of the data set: MTT cytotoxicity test, Chang liver normal cells. Type of data set: cell-based. The settings on record: 48 h incubation.
Text: as §2, §1, §3, §4

For data set [6], the system named is isolated rat liver mitochondria. The experiment in a line: Membrane potential of isolated mitochondria (Safranin A). Type of data set: biochemical. The method, then: The membrane potential of rat […] mitochondria was measured with a Victor 3 plate analyzer (Perkin Elmer, Hamburg, Germany) using the potential-dependent indicator Safranin A [57]. The mitochondrial preparation was diluted in a buffer containing mannitol (225 mM) (Dia-M, Moscow, Russia), sucrose (75 mM) (Sigma Aldrich, Saint Louis, MO, USA), HEPES (10 mM) (Gibco, Scotland, UK), EGTA (20 µM) (Dia-M, Moscow, Russia) and KH2PO4 (1 mM) at pH = 7.4 at a ratio of 0.5 mg of protein to 1 mL of medium. Safranin A (5 µM) was added to the suspension immediately before the start of the measurement. The organelles were then energized by potassium succinate (5 mM) in the presence of rotenone (1 µM). Mitochondrial pore opening was induced by the addition of CaCl2 (25 µM).
Figure 8 Effect of the synthesized compounds on the membrane potential of rat liver mitochondria. (a) Kinetic lines of transmembrane potential changes at λex = 458 nm and λem = 590 nm. The concentration of the test substances was 100 µM. (b) Calculated parameters of % depolarization relative to control samples. Statistical significance was assessed using one-way ANOVA and Dunnett’s multiple comparison tests, where **** p < 0.0001 vs. control. (c) Concentration dependence of the effects of 11b and 17b on mitochondrial membrane potential. The concentration of the test substances was from 20 to 200 µM. Concentration of ions; Ca^2+—25 µM. Mitochondria were energized by potassium succinate and rotenone. Data are presented as mean±error of the mean (n = 3).

Data set [7] has as its system SH-SY5Y neuroblastoma cells. Nature of the data set: Glycolysis stress test (Seahorse XF96e, ECAR). Type of data set: cell-based. The note with it: compound 100 µM. The method, then:
We studied the ability of compounds to inhibit aerobic glycolysis using the Agilent Seahorse XF96e Analyzer (Seahorse Bioscience, North Billerica, MA, USA) assay of cellular metabolism on the level of proton production in samples examined on the SH-SY5Y neuroblastoma cell line using glycolysis stress tests. The extracellular acidification rate of the medium was measured in real time, which allowed us to assess the intensity of glycolysis in the cells by recording the main parameters of glycolytic function: basal glycolysis, glycolytic capacity and glycolytic reserve. Glycolytic capacity describes the maximum amount of glycolysis/glucose breakdown the cells can perform acutely, whereas glycolytic reserve is defined as the difference between the basal and maximal glycolytic capacity.
The ability of synthesized compounds to modulate […] glycolysis was studied using the Agilent Seahorse XF96e Analyzer (Seahorse Bioscience, Billerica, MA, USA) on the neuroblastoma SH-SY5Y cell line (40,000 cells per well) as described earlier.
Glycolysis was measured by subtracting the maximum rate of extracellular acidification of the medium before glucose injection from the maximum rate before oligomycin injection. Glycolytic capacity was measured by subtracting the maximum velocity value before glucose injection from the maximum velocity value after oligomycin injection. Glycolytic reserve was defined as the difference between glycolytic capacity and glycolysis.
Figure 6 Effect of synthesized compounds on the glycolytic profile of (a–c) SH-SY5Y tumor cells and (d) calculated parameters of glycolytic function. […] The concentration of compounds was 100 µM, glucose—10 mM, oligomycin—1 µM и 2-fluoro-2-deoxy-D-glucose—25 mM. Data are presented as mean±error of the mean (n = 3). Statistical significance was assessed using one-way ANOVA and Dunnett’s multiple comparison tests, where **** p < 0.0001, *** p < 0.001, ** p < 0.01 and * p < 0.05 vs. control.

SMILES strings stand for the structures.

As for `Cc1cc(C(C)(C)C)c(O)c(C(C)(C)C)c1` [ionol], the Oxidation potential in the data set “Cyclic voltammetry” is approximately 1.45 V.

In the case of `COP(=O)(OC)C(c1cc(C(C)(C)C)c(O)c(C(C)(C)C)c1)c1ccc(NC(=S)Nc2ccccc2)cc1NC(=S)Nc1ccccc1` (stereo not drawn) [19a], the melting point (in general, the temperature of the solid-liquid transition) was in the range of 207 to 208 °C. In addition, the IC50 (commonly the concentration that gives 50% inhibition) in [1] was more than 70 µM. Further, the IC50 in data set [2] was more than 70 µM. In addition, the 50% inhibitory concentration (IC50) in [3] was more than 70 µM. The IC50 in data set [4] was more than 70 µM.

Regarding `O=C(Nc1ccccc1)Nc1ccccc1` [diphenyl urea], the Oxidation potential in the data set “Cyclic voltammetry” came out at 1.60 V.

As to `CCOP(=O)(OCC)C(c1cc(C(C)(C)C)c(O)c(C(C)(C)C)c1)c1ccc(NC(=O)Nc2ccc(Cl)cc2)nc1NC(=O)Nc1ccc(Cl)cc1` (stereo not drawn) [11b], the IC50 was 63.1 ± 4.9 µM in [1]; 25.7 µM in data set [2]; 99.4 ± 7.8 µM in data set [5]; 70 ± 5.5 µM in data set [3]; 46.4 ± 0.92 µM in data set [4]. Also, the “Intracellular ROS level” value with HuTu 80 cells is 670.7 ± 7.2%. Also, the “Depolarization of mitochondrial membrane” value in data set [6] (isolated mitochondria, compound 100 μM) is reported as 50%. Besides, the “Depolarization relative to control (class in Figure 8b)” value in data set [6] (isolated rat liver mitochondria, compound 100 µM) is on record as “High Depolarization”. Further, the Glycolytic reserve entry in [7] is “ability to decrease glycolytic reserves”. The “Glycolysis: rate of extracellular acidification after saturating glucose” value in data set [7] (glucose 10 mM) is listed as “decrease in the rate of extracellular acidification”. Further, the Glycolytic capacity result in data set [7] (oligomycin 1 µM) was “decrease in glycolytic capacity”.
